Laboratory results as given in patent US20230303540A1 (Merck Sharp & Dohme LLC, priority 2020, published 2023).

Molecular target: GST-tagged truncated human mutant G2019S LRRK2 (Homo sapiens, UniProt Q5S007, G2019S)
Test: LRRK2 G2019S Km ATP LanthaScreen assay
Type: biochemical
Details: 134 μM ATP (Km ATP), LRRKtide substrate, mean IC50 values; read-out: LRRK2 pIC50 (converted)
Method in brief: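 Compound preincubated 15 min at room temperature with enzyme in pH 8.5 Tris buffer (10 mM MgCl2). Then a 90 min reaction at ambient temperature with 134 μM (Km) ATP and fluorescein-LRRKtide. EDTA stop, Tb anti-phospho antibody TR-FRET; […]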

Going from `Cc1c(Nc2ncc3cc(Cl)c(N4CCC(C)(O)C(C)C4)cc3n2)cnn1C1CC1` (single isomer, unassigned) [Ex-3.47, (3R,4R) or (3S,4S) or (3R,4S) or (3S,4R) 1-{6-chloro-2-[(1-cyclopropyl-5-methyl-1H-pyrazol-4-yl)amino]quinazolin-7-yl}-3,4-dimethylpiperidin-4-ol] to `CC1(O)CCN(c2cc3nc(Nc4cnn(C5CC5)c4Cl)ncc3cc2Cl)CC1` [Ex-1.34, 1-{6-chloro-2-[(5-chloro-1-cyclopropyl-1H-pyrazol-4-yl)amino]quinazolin-7-yl}-4-methylpiperidin-4-ol], the IC50 falls from 10.2 nM to 1.39 nM (7.3-fold).

Compared with `Cc1nsc(Nc2ncc3ccc(N4C(=O)OC[C@@H]4C)cc3n2)c1C1CC1` [Ex-7.8, (4S)-3-{2-[(4-cyclopropyl-3-methyl-1,2-thiazol-5-yl)amino]quinazolin-7-yl}-4-methyl-1,3-oxazolidin-2-one], `C[C@H]1COC(=O)N1c1ccc2cnc(Nc3cnn([C@@H]4CCN(C5COC5)C[C@H]4F)c3Cl)nc2c1` [Ex-7.2, (4S)-3-[2-({5-chloro-1-[(3R,4R)-3-fluoro-1-(oxetan-3-yl)piperidin-4-yl]-1H-pyrazol-4-yl}amino)quinazolin-7-yl]-4-methyl-1,3-oxazolidin-2-one] is 18-fold lower in IC50: 11 nM for the first, 0.625 nM for the second.

`Cc1nn(C2CC3(C2)CN(C2COC2)C3)cc1Nc1ncc2ccc(N3C(=O)C4CCC3C4)cc2n1` (single isomer, unassigned) [Ex-8.5, (1R,4S) or (1S,4R)-2-(2-((3-methyl-1-(2-(oxetan-3-yl)-2-azaspiro[3.3]heptan-6-yl)-1H-pyrazol-4-yl)amino)quinazolin-7-yl)-2-azabicyclo[2.2.1]heptan-3-one] and `CC1(O)CCN(c2cc3nc(Nc4cnn([C@H]5CCN(C6COC6)C[C@@H]5F)c4Cl)ncc3cc2Cl)CC1` [Ex-3.6, 1-[6-chloro-2-({5-chloro-1-[(3S,4S)-3-fluoro-1-(oxetan-3-yl)piperidin-4-yl]-1H-pyrazol-4-yl}amino)quinazolin-7-yl]-4-methylpiperidin-4-ol] are the same in IC50: 0.625 nM for the first, 0.625 nM for the second.

Compared with `OC1C2CC1CN(c1cc3nc(Nc4cnn(C5CC5)c4Cl)ncc3cc1Cl)C2` (stereo not shown) [Ex-1.35, 3-{6-chloro-2-[(5-chloro-1-cyclopropyl-1H-pyrazol-4-yl)amino]quinazolin-7-yl}-3-azabicyclo[3.1.1]heptan-6-ol], `Cc1c(Nc2ncc3cc(Cl)c(N4CCN(C5COCC5O)CC4)cc3n2)cnn1C1CC1(F)F` (single isomer, unassigned) [Ex-6.44, (3S,4S) or (3R,4R) 4-[4-(6-chloro-2-{[1-(2,2-(R) or (S)difluorocyclopropyl)-5-methyl-1H-pyrazol-4-yl]amino}quinazolin-7-yl)piperazin-1-yl]oxolan-3-ol] is 2-fold higher in IC50: 3.48 nM for the first, 6.89 nM for the second.

Compared with `COCC12CC(n3cc(Nc4ncc5cc(Cl)c(N6CCC7(CC6)COC(CO)C7)cc5n4)cn3)(C1)C2` (single isomer, unassigned) [Ex-3.16, (R) or (S)-{8-[6-chloro-2-({1-[3-(methoxymethyl)bicyclo[1.1.1]pentan-1-yl]-1H-pyrazol-4-yl}amino)quinazolin-7-yl]-2-oxa-8-azaspiro[4.5]decan-3-yl}methanol], `Cc1c(Nc2ncc3cc(Cl)c(N4CCN(C5COCC5O)CC4)cc3n2)cnn1C1CC1(F)F` (single isomer, unassigned) [Ex-6.39, (3S,4S) or (3R,4R) 4-[4-(6-chloro-2-{[1-(2,2-(R) or (S)difluorocyclopropyl)-5-methyl-1H-pyrazol-4-yl]amino}quinazolin-7-yl)piperazin-1-yl]oxolan-3-ol] is 3-fold higher in IC50: 0.218 nM for the first, 0.65 nM for the second.
